Measured values from patent publication USRE48461E1, “Modulation of androgen receptor expression” (Ionis Pharmaceuticals, Inc., priority 2012, dated 2021).

Key:
Format in all cases: cell-based, human
22RV1 cells [1] = test: 22RV1 cell proliferation, ASO in combination with MDV3100 (Example 22); settings: for Proliferation (% untreated control) in 22RV1 without MDV-3100: RNAiMAX, 3 days
Outline: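 Cells seeded at 2,000 per well in 5% CSS medium for 48 h, then treated for 3 days. Proliferation read with a tetrazolium (CellTiter 96 AQueous One) kit and given as percent inhibition relative to untreated cells.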

AR mRNA = test: AR RNA expression in C4-2 cells (complete, CSS+DHT medium); settings: 48 hrs; for Percent expression of AR: C4-2 cells, CSS + DHT medium
Description: Cells were plated at 1,000 cells per well. […] After an incubation period of 48 hrs, RNA levels of AR, PSA and TMPRSS2 were measured.
Cells were plated at 2,000 cells per well and cultured in CSS media with 1 nM DHT. […] After an incubation period of 48 hrs, RNA levels of AR, PSA and TMPRSS2 were measured.

C4-2 cells = test: C4-2 cell proliferation (complete or CSS+DHT medium); settings: 5 days; for Proliferation (% untreated control): C4-2 cells
Description: After a treatment period of 5 days in complete medium or CSS+1 nM DHT medium, the proliferative capacity of the cancer cells was measured with using CellTiter 96® AQueous One Solution or CellTiter-Glo® Cell Proliferation kit (Promega), following the manufacturer's instructions. […] The proliferative capacity of cells cultured in CSS medium without DHT is 17% of untreated control levels.

PSA mRNA = test: PSA expression in VCaP cells; settings: RNAiMax, 48 hrs
TMPRSS2 mRNA [2] = test: TMPRSS2 expression in VCaP cells; settings: RNAiMax, 48 hrs
VCaP cells = test: VCaP apoptosis (Caspase-Glo 3/7); settings: complete medium, 72 hours; for Apoptosis (% untreated control): VCaP cells
Description: After a treatment period of 72 hours in complete medium, apoptosis of the cancer cells was measured with Caspase-Glo 3/7 assay (Promega). Results are presented in Tables 117 and 118 as percent apoptosis of the cells, relative to non-treated cells.

TMPRSS2 mRNA [3] = test: TMPRSS2 expression in 22RV1 cells; settings: RNAiMax, 48 hrs
Outline: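 In 22RV1 cells, full-length AR, AR-V7, PSA and TMPRSS2 RNA measured after 48 h compound incubation. Complete-medium format used 1,000 cells/well; CSS+DHT format used 2,000 cells/well cultured 16 h in CSS medium, with 1 nM DHT added after 4 h.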

22RV1 cells [4] = test: 22RV1 apoptosis (Caspase-glo 3/7); settings: 72 hours; for Apoptosis (% untreated control): 22RV1 cells
Description: After a treatment period of 72 hours in complete medium or CSS+DHT medium, apoptosis of the cancer cells was measured with Caspase-glo 3/7 assay kit (Promega). Results are presented in Tables 131 and 132 as percent apoptosis of the cells, relative to non-treated cells.

## TTGATTTAATGGTTGC [ISIS 560131] (MOE and (S)-cEt gapmer chemistry, further chemistry not given here) [targets intron 1]
22RV1 cells [1]; 22RV1 cells
  synergy with MDV3100: synergistic with MDV3100
22RV1 cells [1]; 22RV1 cells, 1.34 nM ASO in combination with 1.0 μM MDV3100
  cell proliferation inhibited, combination: 23%
22RV1 cells [1]; 22RV1 cells, ASO alone at 1.34 nM
  inhibited cell proliferation, ASO alone: 3%
22RV1 cells [1]; ASO dose 0.4 nM + 0.04 μM MDV-3100
  Proliferation (% untreated control) in 22RV1 cells with 0.04 μM MDV-3100: 96 % untreated control
22RV1 cells [1]; ASO dose 0.4 nM + 0.2 μM MDV-3100
  Proliferation (% untreated control) in 22RV1 cells with 0.2 μM MDV-3100: 95 % untreated control
22RV1 cells [1]; ASO dose 0.4 nM + 1.0 μM MDV-3100
  Proliferation (% untreated control) in 22RV1 cells with 1.0 μM MDV-3100: 96 % untreated control
22RV1 cells [1]; ASO dose 0.4 nM + 5.0 μM MDV-3100
  Proliferation (% untreated control) in 22RV1 cells with 5.0 μM MDV-3100: 91 % untreated control
22RV1 cells [1]; ASO dose 0.4 nM
  Proliferation (% untreated control) in 22RV1 without MDV-3100: 103 % untreated control
22RV1 cells [1]; ASO dose 1.34 nM + 0.04 μM MDV-3100
  Proliferation (% untreated control) in 22RV1 cells with 0.04 μM MDV-3100: 80 % untreated control
22RV1 cells [1]; ASO dose 1.34 nM + 0.2 μM MDV-3100
  Proliferation (% untreated control) in 22RV1 cells with 0.2 μM MDV-3100: 90 % untreated control
22RV1 cells [1]; ASO dose 1.34 nM + 1.0 μM MDV-3100
  Proliferation (% untreated control) in 22RV1 cells with 1.0 μM MDV-3100: 77 % untreated control
22RV1 cells [1]; ASO dose 1.34 nM + 5.0 μM MDV-3100
  Proliferation (% untreated control) in 22RV1 cells with 5.0 μM MDV-3100: 76 % untreated control
22RV1 cells [1]; ASO dose 1.34 nM
  Proliferation (% untreated control) in 22RV1 without MDV-3100: 97 % untreated control
22RV1 cells [1]; ASO dose 4.0 nM + 0.04 μM MDV-3100
  Proliferation (% untreated control) in 22RV1 cells with 0.04 μM MDV-3100: 65 % untreated control
22RV1 cells [1]; ASO dose 4.0 nM + 0.2 μM MDV-3100
  Proliferation (% untreated control) in 22RV1 cells with 0.2 μM MDV-3100: 76 % untreated control
22RV1 cells [1]; ASO dose 4.0 nM + 1.0 μM MDV-3100
  Proliferation (% untreated control) in 22RV1 cells with 1.0 μM MDV-3100: 63 % untreated control
22RV1 cells [1]; ASO dose 4.0 nM + 5.0 μM MDV-3100
  Proliferation (% untreated control) in 22RV1 cells with 5.0 μM MDV-3100: 63 % untreated control
22RV1 cells [1]; ASO dose 4.0 nM
  Proliferation (% untreated control) in 22RV1 without MDV-3100: 77 % untreated control
22RV1 cells [1]; ASO dose 13.4 nM + 0.04 μM MDV-3100
  Proliferation (% untreated control) in 22RV1 cells with 0.04 μM MDV-3100: 39 % untreated control
22RV1 cells [1]; ASO dose 13.4 nM + 0.2 μM MDV-3100
  Proliferation (% untreated control) in 22RV1 cells with 0.2 μM MDV-3100: 51 % untreated control
22RV1 cells [1]; ASO dose 13.4 nM + 1.0 μM MDV-3100
  Proliferation (% untreated control) in 22RV1 cells with 1.0 μM MDV-3100: 40 % untreated control
22RV1 cells [1]; ASO dose 13.4 nM + 5.0 μM MDV-3100
  Proliferation (% untreated control) in 22RV1 cells with 5.0 μM MDV-3100: 41 % untreated control
22RV1 cells [1]; ASO dose 13.4 nM
  Proliferation (% untreated control) in 22RV1 without MDV-3100: 57 % untreated control
AR mRNA; 0.04 μM
  Percent expression of AR: 88%
  Percent expression of AR in C4-2 cells cultured in complete medium: 48%
AR mRNA; 0.2 μM
  Percent expression of AR: 57%
  Percent expression of AR in C4-2 cells cultured in complete medium: 13%
AR mRNA; 1 μM
  Percent expression of AR: 20%
  Percent expression of AR in C4-2 cells cultured in complete medium: 8%
AR mRNA; 5.0 μM
  Percent expression of AR: 15%
  Percent expression of AR in C4-2 cells cultured in complete medium: 8%
C4-2 cells; CSS + DHT medium, 0.04 μM
  Proliferation (% untreated control): 106 % untreated control
C4-2 cells; CSS + DHT medium, 0.2 μM
  Proliferation (% untreated control): 94 % untreated control
C4-2 cells; CSS + DHT medium, 1 μM
  Proliferation (% untreated control): 47 % untreated control
C4-2 cells; CSS + DHT medium, 5.0 μM
  Proliferation (% untreated control): 31 % untreated control
C4-2 cells; complete medium, 0.04 μM
  Proliferation (% untreated control): 104 % untreated control
C4-2 cells; complete medium, 0.2 μM
  Proliferation (% untreated control): 82 % untreated control
C4-2 cells; complete medium, 1 μM
  Proliferation (% untreated control): 70 % untreated control
C4-2 cells; complete medium, 5.0 μM
  Proliferation (% untreated control): 51 % untreated control
C4-2 cells; complete medium or CSS+1 nM DHT
  proliferation of C4-2 cells: reduced proliferation of the cells in a dose dependent manner compared to the control
PSA mRNA; CSS + DHT medium, 1.34 nM
  Percent inhibition of PSA expression: 0%
PSA mRNA; CSS + DHT medium, 4.0 nM
  Percent inhibition of PSA expression: 35%
PSA mRNA; CSS + DHT medium, 13.4 nM
  Percent inhibition of PSA expression: 69%
PSA mRNA; CSS + DHT medium, 40 nM
  Percent inhibition of PSA expression: 73%
PSA mRNA; complete medium, 1.34 nM
  Percent inhibition of PSA expression: 2%
PSA mRNA; complete medium, 4.0 nM
  Percent inhibition of PSA expression: 24%
PSA mRNA; complete medium, 13.4 nM
  Percent inhibition of PSA expression: 35%
PSA mRNA; complete medium, 40 nM
  Percent inhibition of PSA expression: 46%
TMPRSS2 mRNA [2]; CSS + DHT medium, 1.34 nM
  Percent inhibition of TMPRSS2 expression: 0%
TMPRSS2 mRNA [2]; CSS + DHT medium, 4.0 nM
  Percent inhibition of TMPRSS2 expression: 21%
TMPRSS2 mRNA [2]; CSS + DHT medium, 13.4 nM
  Percent inhibition of TMPRSS2 expression: 49%
TMPRSS2 mRNA [2]; CSS + DHT medium, 40 nM
  Percent inhibition of TMPRSS2 expression: 57%
TMPRSS2 mRNA [2]; complete medium, 1.34 nM
  Percent inhibition of TMPRSS2 expression: 0%
TMPRSS2 mRNA [2]; complete medium, 4.0 nM
  Percent inhibition of TMPRSS2 expression: 0%
TMPRSS2 mRNA [2]; complete medium, 13.4 nM
  Percent inhibition of TMPRSS2 expression: 0%
TMPRSS2 mRNA [2]; complete medium, 40 nM
  Percent inhibition of TMPRSS2 expression: 4%
VCaP cells; 1.34 nM
  Apoptosis (% untreated control): 189 % untreated control
VCaP cells; 4.0 nM
  Apoptosis (% untreated control): 253 % untreated control
VCaP cells; 13.4 nM
  Apoptosis (% untreated control): 356 % untreated control
VCaP cells; 40 nM
  Apoptosis (% untreated control): 262 % untreated control
VCaP cells
  apoptosis of VCaP cells: increased apoptosis of the cells in a dose dependent compared to the control
TMPRSS2 mRNA [3]; CSS + DHT medium, 1.34 nM
  Percent inhibition of TMPRSS2 expression: 39%
TMPRSS2 mRNA [3]; CSS + DHT medium, 4.0 nM
  Percent inhibition of TMPRSS2 expression: 50%
TMPRSS2 mRNA [3]; CSS + DHT medium, 13.4 nM
  Percent inhibition of TMPRSS2 expression: 59%
TMPRSS2 mRNA [3]; complete medium, 1.34 nM
  Percent inhibition of TMPRSS2 expression: 7%
TMPRSS2 mRNA [3]; complete medium, 4.0 nM
  Percent inhibition of TMPRSS2 expression: 3%
TMPRSS2 mRNA [3]; complete medium, 13.4 nM
  Percent inhibition of TMPRSS2 expression: 19%
TMPRSS2 mRNA [3]; complete medium, 40 nM
  Percent inhibition of TMPRSS2 expression: 32%
22RV1 cells [4]; CSS + DHT medium, 1.34 nM
  Apoptosis (% untreated control): 121 % untreated control
22RV1 cells [4]; CSS + DHT medium, 4.0 nM
  Apoptosis (% untreated control): 113 % untreated control
22RV1 cells [4]; CSS + DHT medium, 13.4 nM
  Apoptosis (% untreated control): 172 % untreated control
22RV1 cells [4]; CSS + DHT medium, 40 nM
  Apoptosis (% untreated control): 518 % untreated control
22RV1 cells [4]; complete medium, 1.34 nM
  Apoptosis (% untreated control): 99 % untreated control
22RV1 cells [4]; complete medium, 4.0 nM
  Apoptosis (% untreated control): 127 % untreated control
22RV1 cells [4]; complete medium, 13.4 nM
  Apoptosis (% untreated control): 131 % untreated control
22RV1 cells [4]; complete medium, 40 nM
  Apoptosis (% untreated control): 566 % untreated control
22RV1 cells [4]; complete or CSS+DHT medium
  apoptosis of 22RV1 cells: increased apoptosis of the cells in a dose dependent compared to the control
